# Measured values as given in patent US12618845B2, “Methods and compositions for protein sequencing” (Quantum-Si Incorporated, priority 2018, dated 2026).
# Entries after “also recorded” stand apart in the source; their conditions may differ. Square brackets hold non-standard residues; d marks the D form. Ends that are not written are not given here. Lys(N3) = [N-]=[N+]=NCCCC[C@H](N)C(=O)O
# Test system: amino acid at a terminal position of a polypeptide
# Experiment: not given
# Conditions: amino acid identity at a terminal position of a polypeptide; phospho-Y also at an internal position; cited from earlier work
row,Substance,Binding Pref.
1,"H. sapiens Src tyrosine kinase SH2 domain: amino acid recognition protein, SEQ ID NO: 24",phospho-Y
2,"H. sapiens p62 fragment 1-180: amino acid recognition protein, SEQ ID NO: 27","K, R, H,; also recorded: W, F, Y"
3,"H. sapiens p62 fragment 1-310: amino acid recognition protein, SEQ ID NO: 26","K, R, H,; also recorded: W, F, Y"
4,"H. sapiens p62 fragment 126-180: amino acid recognition protein, SEQ ID NO: 28","K, R, H,; also recorded: W, F, Y"
5,"Rattus norvegicus p62 protein: amino acid recognition protein, SEQ ID NO: 30","K, R, H,; also recorded: W, F, Y"

# Test system: proline iminopeptidase (PIP)
# Experiment: Terminal amino acid cleavage of peptide-linker conjugates monitored by LCMS, PIP
# Format: biochemical
# Conditions: incubated with PIP
# Method: (§1) The peptide-linker conjugates were evaluated for amino acid cleavage at peptide N-termini by N-terminal aminopeptidases (Table 6, below).
# (§2) The peptide-linker conjugates shown in Table 6 were incubated with either proline iminopeptidase (“PIP”) or rat aminopeptidase N (“Rat APN”), and peptide cleavage was monitored by LCMS. All other cleavage reactions were measured in a similar manner.
row,Substance,Cleaved by PIP
1,DPDPDP{LYS(N3)} [Entry 9],Yes
2,FPFPFP{LYS(N3)} [Entry 8],Yes
3,KPKPKP{LYS(N3)} [Entry 10],No
4,KPKPKP{LYS(N3)} [Entry 11],Yes

# Target: T1, rat aminopeptidase N (Rat APN) (Rattus norvegicus, UniProt P15684)
# T1 sequence (P15684 1-965): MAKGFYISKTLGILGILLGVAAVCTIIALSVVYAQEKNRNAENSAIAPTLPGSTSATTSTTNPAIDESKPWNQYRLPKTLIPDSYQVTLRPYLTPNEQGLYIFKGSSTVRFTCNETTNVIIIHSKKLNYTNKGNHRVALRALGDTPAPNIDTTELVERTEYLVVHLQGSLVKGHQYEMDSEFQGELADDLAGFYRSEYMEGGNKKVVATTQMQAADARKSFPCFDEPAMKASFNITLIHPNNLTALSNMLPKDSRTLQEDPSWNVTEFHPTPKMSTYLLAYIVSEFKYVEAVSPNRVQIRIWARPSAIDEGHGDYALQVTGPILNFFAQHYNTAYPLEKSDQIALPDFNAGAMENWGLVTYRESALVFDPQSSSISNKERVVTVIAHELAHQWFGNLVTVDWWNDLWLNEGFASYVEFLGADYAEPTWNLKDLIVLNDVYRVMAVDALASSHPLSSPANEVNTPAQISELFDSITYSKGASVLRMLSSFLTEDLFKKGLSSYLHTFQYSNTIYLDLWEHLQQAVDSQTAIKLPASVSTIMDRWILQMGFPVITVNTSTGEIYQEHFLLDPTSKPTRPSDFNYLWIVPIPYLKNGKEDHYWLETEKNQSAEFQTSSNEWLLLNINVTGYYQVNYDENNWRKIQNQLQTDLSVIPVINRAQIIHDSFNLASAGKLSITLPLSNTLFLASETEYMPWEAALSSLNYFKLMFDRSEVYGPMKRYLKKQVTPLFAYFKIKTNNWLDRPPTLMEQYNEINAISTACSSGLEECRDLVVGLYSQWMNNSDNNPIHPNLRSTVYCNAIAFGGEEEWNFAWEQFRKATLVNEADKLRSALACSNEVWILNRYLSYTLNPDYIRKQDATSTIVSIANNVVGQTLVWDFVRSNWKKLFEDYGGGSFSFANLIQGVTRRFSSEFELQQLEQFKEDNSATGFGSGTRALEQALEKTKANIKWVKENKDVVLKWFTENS
# Experiment: Terminal amino acid cleavage of peptide-linker conjugates monitored by LCMS, Rat APN
# Format: biochemical
# Conditions: incubated with Rat APN
# Method: as §1, §2
row,Substance,Cleaved by Rat APN
1,AAMAAM{LYS(N3)} [Entry 7],Yes
2,DDMDDM{LYS(N3)} [Entry 5],Yes
3,"FFMFFM{LYS(N3)} (FFMFFM[Lys(N3)]; also: oligo linker) [Entry 6, 73, aromatic class, oligo linker]",Yes
4,"KKMKKM{LYS(N3)} [2] (KKMKKM[Lys(N3)]; also: oligo linker) [Entry 2, 71, positive class, oligo linker]",No
5,"KKMKKM{LYS(N3)} [3] (KKMKKM[Lys(N3)]; also: oligo-PEG linker) [Entry 3, 71, positive class, oligo-PEG linker]",No
6,"KKMKKM{LYS(N3)} [4] (KKMKKM[Lys(N3)]; also: PEG4 linker) [Entry 4, 71, positive class, PEG4 linker]",Yes
